The values below come from patent US20140356414A1, “Targeted Crosslinked Multilamellar Liposomes” (University of Southern California, priority 2013, published 2014).

Data set [1] in a line: Maximum tolerated dose study. Conditions: for body weight: 8 days.
Source text: The mice were weighed and monitored daily for 8 days after injection.
For the next data set, the system named is cardiac tissue. Particulars: 20 mg/kg Dox equivalent, single i.v. The source says:
FIGS. 9A-B. In vivo toxicity and tolerability. […] (A) Average mouse weight loss over time. […] Error bars represent the standard deviation of the mean; n=2 for each treatment group (*p<0.05, ***p<0.005).

Another data set relates to B16 cells. Briefly: In vitro cytotoxicity, XTT assay, B16 cells. Particulars: 48 h. The data set is classed as cell-based. On the procedure: B16 or HeLa cells were plated at a density of 5×10^3 cells per well in D10 media in 96-well plates and grown for 6 h. The cells were then exposed to a series of concentrations of Dox-loaded CMLs, ULs or DLLs for 48 h, and the cytotoxicity of Dox-liposomes was assessed using the Cell Proliferation Kit II (XTT assay) from Roche Applied Science, according to the manufacturer's instructions.
A general note: Tetrazolium assays rely on reduction of a dye to a coloured formazan, in cell work by metabolically active cells.

Structures are written as SMILES.

As to `COc1cccc2c1C(=O)c1c(O)c3c(c(O)c1C2=O)C[C@@](O)(C(=O)CO)C[C@@H]3O[C@H]1C[C@H](N)[C@H](O)[C@H](C)O1` [free Dox, doxorubicin], the body weight result in data set [1] (20 mg/kg Dox equivalent) and in data set [1] (40 mg/kg Dox equivalent) was “significant loss of body weight” throughout. For the same compound, the “general health / signs of toxicity” value in data set [1] (40 mg/kg free Dox, CML-Dox groups) is listed as “obvious signs of toxicity”. This compound registered a maximum tolerated dose in data set [1] (single intravenous administration, C57BL/6 mice) below 20 mg/kg. Also, in the data set on cardiac tissue, the “histopathologic changes in cardiac tissue” value was “severe damage of cardiac tissue”. The “half-maximal response (EC50)” value with B16 cells is listed as “similar”.
